{"source": "paper PMC9687812", "about": "“Discovery of Trace Amine-Associated Receptor 1 (TAAR1) Agonist 2-(5-(4′-Chloro-[1,1′-biphenyl]-4-yl)-4H-1,2,4-triazol-3-yl)ethan-1-amine (LK00764) for the Treatment of Psychotic Disorders” (Biomolecules, 2022)", "key": {"[1]": {"system": "Wistar male rats", "assay": "Stress-induced hyperthermia (SIH) test", "assay_type": "in vivo, rat", "settings": "n = 8", "procedure": "SIH test is commonly used to evaluate the potential anti-anxiety effect of drugs. Thermometry was performed rectally in rats with a BIOSEB thermometer. Eight Wistar male rats were injected i.p. with vehicle or LK00764, dissolved in 10% tween 80 saline solution. Latin square design was used for the experiment. The first measurement was performed directly before the injection and the second measurement was performed 15 min later. The difference between the first and the second temperature was calculated.\nAnother behavioral paradigm known to be affected by TAAR1 agonists is the stress-induced hyperthermia test, which is believed to be a sensitive approach to evaluate the anxiolytic action of compounds [10, 42, 39a]. Thus, compound 62 (LK00764) was evaluated in this test at doses of 3 and 5 mg/kg, i.p. (Figure 7). At both doses, this compound was effective in suppressing stress-induced hyperthermia in rats (p < 0.05 and p < 0.001 for 3 and 5 mg/kg, respectively; Dunn’s test)."}, "[2]": {"target": "T1, TAAR1 (Homo sapiens, UniProt Q96RJ0)", "T1 sequence (Q96RJ0 1-339)": "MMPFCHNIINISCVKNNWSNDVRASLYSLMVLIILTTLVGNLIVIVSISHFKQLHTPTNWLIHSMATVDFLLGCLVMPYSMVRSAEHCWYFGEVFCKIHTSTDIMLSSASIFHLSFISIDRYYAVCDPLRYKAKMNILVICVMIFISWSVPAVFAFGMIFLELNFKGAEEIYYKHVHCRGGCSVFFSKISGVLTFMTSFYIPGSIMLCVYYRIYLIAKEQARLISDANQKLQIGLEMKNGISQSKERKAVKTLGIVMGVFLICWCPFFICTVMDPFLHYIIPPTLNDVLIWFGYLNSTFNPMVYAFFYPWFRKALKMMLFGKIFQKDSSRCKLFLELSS", "assay": "BRET-based cellular cAMP (EPAC biosensor) assay of TAAR1 agonism in transfected HEK-293 cells", "description": "The Bioluminescence Resonance Energy Transfer approach (BRET) has been used for functional activity experiments. HEK-293 cells were transiently transfected with cDNA for TAARs and cAMP BRET biosensor (EPAC) and then plated in a 96-well plate, as described [23]. All compounds were tested at the initial concentration of 10 µM. […] A natural agonist of TAAR1 β-phenylethylamine (β-PEA) was used as a positive control."}, "[3]": {"system": "MK-801-treated Wistar rats", "assay": "MK-801-induced hyperactivity in rats (Actometer)", "assay_type": "in vivo, rat", "procedure": "(§1) MK-801 (dizocilpine, (+)-5-methyl-10,11-dihydro-5H-dibenzo-[a,d]-cyclohepten-5,10-imine maleate; Sigma-Aldrich, St. Louis, MO, USA) was dissolved in saline. Compound 62 (LK00764) was dissolved in 10% Tween 80 saline solution. All solutions were made fresh shortly before injections. Drug doses were tested in a pseudo-random order derived from Latin square design with at least 72 h between consecutive tests. All drugs and vehicles were administered intraperitoneally (i.p.) in the volume of 1 mL/kg. Drug doses are reported as salts. Selection of the MK-801 dose (0.2 mg/kg) was based the previous experience with the compound [24]. All locomotor activity tests (duration—60 min) were performed 15 min after the administration of compounds.\nWe evaluated locomotor activity of rats in the Actometer apparatus. A detailed description of the apparatus has been presented before. […]\nGlutamate NMDA receptor antagonist-induced hyperactivity in rodents is commonly used as a pharmacological animal model of schizophrenia in the screening of potential antipsychotics. […] Thus, we used MK-801 (0.2 mg/kg, i.p.) treatment to induce hyperactivity in rats and analyzed the effects of compound 62 (LK00764) at doses of 0.3, 1, 3, 5, and 10 mg/kg, i.p. on locomotor activity of MK-801-treated Wistar rats."}, "[4]": {"system": "DAT-KO rats", "assay": "Spontaneous locomotor hyperactivity of dopamine transporter knockout (DAT-KO) rats", "assay_type": "in vivo, rat", "procedure": "as §1\n(§2) We evaluated locomotor activity of rats in the Actometer apparatus. A detailed description of the apparatus has been presented before. Shortly, each box of the apparatus was equipped by photocell-based infrared sensors to assess horizontal and vertical activity. Wistar rats were tested in the apparatus following a one-week habituation period (baseline period). […]\nAnimals without DAT have a disrupted re-uptake of dopamine resulting in remarkably elevated extracellular dopamine levels and spontaneous locomotor hyperactivity. […] Thus, we next evaluated the effects of LK00764 (1–10 mg/kg, i.p.) on spontaneous locomotor hyperactivity of DAT-KO rats (n = 9)."}, "[5]": {"system": "intact Wistar rats", "assay": "Spontaneous locomotor activity of intact rats (Actometer)", "assay_type": "in vivo, rat", "settings": "0.3–10 mg/kg i.p., n = 9", "procedure": "as §1\nas §2, with “period). During this period, the animals were placed in locomotor activity boxes for 60 min per day, 6 days a week to habituate them to the environment.” for “period).”\nNext, we analyzed the locomotor effects of compound 62 (LK00764, 0.3–10 mg/kg, i.p.) on the additional group of intact rats (n = 9)."}}, "data": [{"smiles": "Cl.NCCc1nnc(-c2ccc(-c3ccc(Cl)cc3)cc2)[nH]1", "note": "[Compound 62, 2-(5-(4′-Chloro-(1,1′-biphenyl)-4-yl)-4H-1,2,4-triazol-3-yl)ethan-1-amine Hydrochloride]", "values": [{"measurement": "suppression of stress-induced hyperthermia", "setting": "[1]; 3 mg/kg i.p., p < 0.05 Dunn's test", "value": "effective"}, {"measurement": "suppression of stress-induced hyperthermia", "setting": "[1]; 5 mg/kg i.p., p < 0.001 Dunn's test", "value": "effective"}, {"measurement": "EC50", "setting": "[2]", "value": 4, "unit": "nM"}, {"measurement": "potency relative to Ulotaront (times higher)", "setting": "[2]", "value": "more than 30 times"}, {"measurement": "Emax", "setting": "[2]; HEK293, read-out: Emax: maximum observed activation of TAAR1 relative to that observed for 1 μM of β-PEA", "value": 101, "unit": "%"}, {"measurement": "effect on MK-801-induced hyperactivity (horizontal and vertical activity)", "setting": "[3]; 0.3, 1, 3, 5, 10 mg/kg i.p., MK-801 0.2 mg/kg i.p., Friedman test, horizontal p < 0.05, vertical p < 0.01, n = 7", "value": "dose-dependently mitigated"}, {"measurement": "effect on horizontal and vertical locomotor activity vs vehicle in MK-801-treated rats", "setting": "[3]; doses of 5 and 10 mg/kg i.p., Dunnett's test p < 0.05", "value": "significant"}, {"measurement": "horizontal and vertical activity of DAT-KO rats", "setting": "[4]; 1–10 mg/kg i.p., n = 9, Friedman p < 0.05", "value": "significant dose-dependent decrease"}, {"measurement": "locomotor hyperactivity of DAT-KO rats vs vehicle", "setting": "[4]; only the highest tested dose, 10 mg/kg i.p., Dunnett's test", "value": "significantly (p < 0.05) diminished"}, {"measurement": "melting point", "value": "247 to 249", "unit": "°C"}, {"measurement": "vertical activity of intact rats", "setting": "[5]; Friedman p < 0.001", "value": "decreased"}, {"measurement": "horizontal activity of intact rats", "setting": "[5]; Friedman p = 0.60", "value": "did not affect"}]}]}
